Publication PMC6858373 (Scientific Reports, 2019)
Structures can show the parent of a compound that is named as a salt. Where two headings read alike, the source gives them in different places.

Legend:
[1] = molecular target: full-length P. pyralis luciferase (Photinus pyralis, UniProt P08659, K549A/L550V/N119G/N50D/S548I); format: cell-based
[2] = molecular target: T1, FGF14:Nav1.6 C-tail complex (Homo sapiens, UniProt Q92915+Q9UQD0); assay: Split-luciferase complementation assay (LCA) in Clone V double stable HEK293 cells; format: cell-based; details: for Split Luciferase Assay % Lum Set 1 / Split Luciferase Assay Z-score Set 1: biological replicate Set 1; for Split Luciferase Assay % Lum Set 1 / Split Luciferase Assay %Lum Set 2: normalized to on-plate 0.3% DMSO controls (n=16 per plate); for Split Luciferase Assay %Lum Set 2 / Split Luciferase Assay Z-score Set 2: biological replicate Set 2; for Split Luciferase Assay Z-score Set 1 / Split Luciferase Assay Z-score Set 2: normalized to on-plate 0.3% DMSO controls; for Split Luciferase Assay %Lum Avg: average of Set 1 and Set 2, normalized to 0.3% DMSO controls
T1 construct: polymerase chain reaction (PCR) amplification of the FGF14 open reading frame (nt 1–855); C-terminal fragment of Nav1.6 (amino acids 1763–1976) fused with CD4ΔC-tail (amino acids 1–395); expressed in transfected cells

[3] = CC_NCI screening, full-length luciferase counter-screen luminescence, normalized to on-plate 0.3% DMSO controls
[4] = CC_NCI screening, full-length luciferase counter-screen, normalized to on-plate 0.3% DMSO controls
[5] = CC_NCI screening, LCA luminescence
[6] = CC_NCI screening, normalized to on-plate 0.3% DMSO controls

Sequence of full-length P. pyralis luciferase (P08659 whole entry N50D/N119G/S548I/K549A/L550V, looked up): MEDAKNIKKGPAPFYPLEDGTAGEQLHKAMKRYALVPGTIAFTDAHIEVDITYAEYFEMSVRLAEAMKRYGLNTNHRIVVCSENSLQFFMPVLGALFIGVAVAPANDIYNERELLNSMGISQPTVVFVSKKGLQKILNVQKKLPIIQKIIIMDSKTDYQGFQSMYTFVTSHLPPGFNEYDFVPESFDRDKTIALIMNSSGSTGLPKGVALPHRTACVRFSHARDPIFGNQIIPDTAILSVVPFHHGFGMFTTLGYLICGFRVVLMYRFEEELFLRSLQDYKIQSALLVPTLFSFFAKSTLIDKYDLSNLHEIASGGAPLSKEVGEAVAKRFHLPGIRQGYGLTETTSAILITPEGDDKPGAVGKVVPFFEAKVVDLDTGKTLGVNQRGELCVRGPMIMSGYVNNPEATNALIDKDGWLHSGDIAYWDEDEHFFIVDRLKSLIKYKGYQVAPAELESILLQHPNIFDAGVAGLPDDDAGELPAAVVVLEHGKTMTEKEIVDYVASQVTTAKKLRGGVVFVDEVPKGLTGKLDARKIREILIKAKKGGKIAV
T1 sequence (Q92915 1-252 isoform Q92915-2): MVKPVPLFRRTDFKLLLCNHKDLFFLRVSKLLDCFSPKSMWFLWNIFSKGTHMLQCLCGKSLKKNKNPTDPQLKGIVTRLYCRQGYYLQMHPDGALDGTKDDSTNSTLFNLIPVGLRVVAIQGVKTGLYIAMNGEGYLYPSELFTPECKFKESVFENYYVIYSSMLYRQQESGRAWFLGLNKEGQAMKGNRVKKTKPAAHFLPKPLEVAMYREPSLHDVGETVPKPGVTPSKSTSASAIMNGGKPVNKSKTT
T1 sequence (Q9UQD0 1763-1976 limits assumed): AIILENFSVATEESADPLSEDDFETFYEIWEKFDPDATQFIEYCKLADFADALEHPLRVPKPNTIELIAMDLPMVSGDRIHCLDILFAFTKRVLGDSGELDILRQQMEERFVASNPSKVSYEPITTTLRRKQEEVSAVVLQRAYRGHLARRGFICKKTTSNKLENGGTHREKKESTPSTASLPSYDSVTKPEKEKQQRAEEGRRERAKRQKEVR

SMILES	Luciferase Assay % Lum [1, 3] [%]	Luciferase Assay Z-score [1, 4]	Split Luciferase Assay % Lum Set 1 [2, 5] [%]	Split Luciferase Assay %Lum Set 2 [2, 5] [%]	Split Luciferase Assay Z-score Set 1 ([2]; CC_NCI screening, LCA)	Split Luciferase Assay Z-score Set 2 ([2]; CC_NCI screening, LCA)	Split Luciferase Assay %Lum Avg ([2]; CC_NCI screening) [%]	Toxicity Assay % Fluor (Clone V cells) [%]	Toxicity Assay Z-score (Clone V cells)	Toxicity Assay % Fluor (Clone V cells; human, 16 h, 30 µM) [%]	Toxicity Assay Z-score (Clone V cells; human, 16 h, 30 µM)	further results
CC(C)C[C@H](NC(=O)[C@H](Cc1ccccc1)NC(=O)c1cnccn1)B(O)O [Bortezomib]	83.42	-2.12	89.47	117.56	-0.85	1.43	103.51	93.30	-0.94	–	–	–
c1cc(CN2CCCNCCNCCCNCC2)ccc1CN1CCCNCCNCCCNCC1 [Plerixafor]	–	–	112.30	111.31	0.99	0.92	111.81	–	–	92.88	-1.00	Luciferase Assay % Lum [1]: 97.43%; Luciferase Assay Z-score [1]: -0.33
NC(=O)NO [Hydroxyurea]	–	–	–	–	–	–	–	–	–	–	–	Luciferase Assay % Lum (full-length luciferase counter-screen) [1, 6]: 102.60%; Luciferase Assay Z-score (full-length luciferase counter-screen) [1, 6]: 0.33; Split Luciferase Assay Z-score Set 1 ([2]; CC_NCI screening): -0.85; Split Luciferase Assay % Lum Set 1 ([2]; CC_NCI screening): 89.47%; Split Luciferase Assay Z-score Set 2 ([2]; CC_NCI screening): 1.01; Split Luciferase Assay %Lum Set 2 ([2]; CC_NCI screening): 112.35%; Split Luciferase Assay %Lum Avg [2]: 100.91%; Toxicity Assay % Fluor (CTB cell viability fluorescence) (Clone V cells): 115.47%; Toxicity Assay Z-score (CTB cell viability) (Clone V cells): 2.16
CCN(CC)CCCC(C)Nc1nc(C)cc(Nc2ccc3nc(C)cc(N)c3c2)n1 (stereo not drawn) [NSC23766]	–	–	–	–	–	–	–	–	–	–	–	Luciferase Assay Z-score (full-length luciferase counter-screen) [1, 6]: 0.79; Split Luciferase Assay Z-score Set 1 ([2]; CC_NCI screening): 0.12; Split Luciferase Assay % Lum Set 1 ([2]; CC_NCI screening): 101.43%; Split Luciferase Assay Z-score Set 2 ([2]; CC_NCI screening): -0.01; Split Luciferase Assay %Lum Set 2 ([2]; CC_NCI screening): 99.87%; Split Luciferase Assay %Lum Avg [2]: 100.65%; Toxicity Assay % Fluor (CTB cell viability fluorescence) (Clone V cells): 111.37%; Toxicity Assay Z-score (CTB cell viability) (Clone V cells): 1.59
O=C(c1ccc(OCCN2CCCCC2)cc1)c1c(-c2ccc(O)cc2)sc2cc(O)ccc12 [Raloxifene]	91.29	-1.12	56.86	52.02	-3.49	-3.90	54.44	–	–	90.90	-1.27	–
CCOC(=O)C1=C(N)Oc2ccc(Br)cc2C1C(C#N)C(=O)OCC (stereo not drawn) [HA14-1]	99.78	-0.03	80.77	97.79	-1.55	-0.18	89.28	102.67	0.37	–	–	–
COc1cc2ncn(-c3cc(OCc4ccccc4C(F)(F)F)c(C(N)=O)s3)c2cc1OC [GW 843682X]	102.89	0.37	163.39	170.61	5.12	5.75	167.00	–	–	106.44	0.90	–
O=c1cc(-c2cccc3c2Sc2ccccc2S3)oc(N2CCOCC2)c1 [KU-55933]	33.90	-8.46	69.90	81.14	-2.43	-1.53	75.52	–	–	89.20	-1.51	–
Cc1cn(-c2cc(NC(=O)c3ccc(C)c(Nc4nccc(-c5cccnc5)n4)c3)cc(C(F)(F)F)c2)cn1 [Nilotinib]	94.65	-0.68	126.43	113.39	2.14	1.09	119.91	–	–	85.20	-2.07	–
Cn1cc(/C=C2\C(=O)Nc3cccnc32)c2ccccc21 [GW 441756]	–	–	–	–	–	–	–	–	–	–	–	Luciferase Assay % Lum (full-length luciferase counter-screen) [1, 6]: 109.93%; Luciferase Assay Z-score (full-length luciferase counter-screen) [1, 6]: 1.27; Split Luciferase Assay Z-score Set 1 ([2]; CC_NCI screening): -0.50; Split Luciferase Assay % Lum Set 1 ([2]; CC_NCI screening): 93.82%; Split Luciferase Assay Z-score Set 2 ([2]; CC_NCI screening): -2.30; Split Luciferase Assay %Lum Set 2 ([2]; CC_NCI screening): 71.78%; Split Luciferase Assay %Lum Avg [2]: 82.80%; Toxicity Assay % Fluor (CTB cell viability fluorescence) (Clone V cells): 107.67%; Toxicity Assay Z-score (CTB cell viability) (Clone V cells): 1.07
COc1cccc2c1C(=O)c1c(O)c3c(c(O)c1C2=O)C[C@@](O)(C(=O)CO)C[C@@H]3O[C@H]1C[C@H](N)[C@@H](O)[C@H](C)O1 [Epirubicin hydrochloride]	76.16	-3.05	44.90	45.77	-4.45	-4.41	45.34	–	–	86.21	-1.93	–
OCC1OC(O)CC(O)C1O (stereo not drawn) [Compound 2DG]	91.76	-1.06	104.69	130.04	0.38	2.44	117.36	93.82	-0.86	–	–	–
Cc1nc(Nc2ncc(C(=O)Nc3c(C)cccc3Cl)s2)cc(N2CCN(CCO)CC2)n1 [Dasatinib]	84.22	-2.02	92.73	79.06	-0.59	-1.70	85.90	94.47	-0.77	–	–	–
O=[As]O[As]=O (stereo not drawn) [Arsenic trioxide]	96.86	-0.40	20.98	29.13	-6.39	-5.77	25.05	84.44	-2.18	–	–	–
O=C1NC(=O)/C(=C/c2ccc3c(c2)OC(F)(F)O3)S1 [AS-604850]	–	–	–	–	–	–	–	–	–	–	–	Luciferase Assay % Lum (full-length luciferase counter-screen) [1, 6]: 62.77%; Luciferase Assay Z-score (full-length luciferase counter-screen) [1, 6]: -4.77; Split Luciferase Assay Z-score Set 1 ([2]; CC_NCI screening): -2.78; Split Luciferase Assay % Lum Set 1 ([2]; CC_NCI screening): 65.55%; Split Luciferase Assay Z-score Set 2 ([2]; CC_NCI screening): -1.96; Split Luciferase Assay %Lum Set 2 ([2]; CC_NCI screening): 75.94%; Split Luciferase Assay %Lum Avg [2]: 70.75%; Toxicity Assay Z-score (CTB cell viability) (Clone V cells): 2.25
CC(=O)Nc1cccc(-n2c(=O)n(C3CC3)c(=O)c3c(Nc4ccc(I)cc4F)n(C)c(=O)c(C)c32)c1 [Trametinib]	95.81	-0.54	101.43	79.06	0.12	-1.70	90.25	–	–	92.79	-1.01	–
COc1cc(Nc2c(C#N)cnc3cc(OCCCN4CCN(C)CC4)c(OC)cc23)c(Cl)cc1Cl [Bosutinib]	70.20	-3.82	10.11	17.69	-7.26	-6.70	13.90	75.29	-3.45	–	–	–
COc1cc2c(Nc3ccc(NC(=O)c4ccccc4)cc3)ncnc2cc1OCCCN1CCOCC1 [ZM447439]	–	–	–	–	–	–	–	–	–	–	–	Luciferase Assay % Lum (full-length luciferase counter-screen) [1, 6]: 98.24%; Luciferase Assay Z-score (full-length luciferase counter-screen) [1, 6]: -0.23; Split Luciferase Assay Z-score Set 1 ([2]; CC_NCI screening): 1.70; Split Luciferase Assay % Lum Set 1 ([2]; CC_NCI screening): 120.99%; Split Luciferase Assay Z-score Set 2 ([2]; CC_NCI screening): -1.70; Split Luciferase Assay %Lum Set 2 ([2]; CC_NCI screening): 79.06%; Split Luciferase Assay %Lum Avg [2]: 100.03%; Toxicity Assay % Fluor (CTB cell viability fluorescence) (Clone V cells): 106.45%; Toxicity Assay Z-score (CTB cell viability) (Clone V cells): 0.90
CCN(CC)CCNC(=O)c1c(C)[nH]c(/C=C2\C(=O)Nc3ccc(F)cc32)c1C [SUNITINIB]	–	–	80.77	74.90	-1.55	-2.04	77.84	93.10	–	–	–	Luciferase Assay % Lum [1]: 90.75%; Luciferase Assay Z-score [1]: -1.18
